In brackets after ≈: the same amount, converted by molar mass. Activity calls are given as the source filed them. The calls are words filed in the database; no cut-off is given here.
What was measured:
Streptococcus pyogenes [1] = assay: Antibacterial activity against Streptococcus pyogenes MED 2040 by broth microdilution method; type: functional
Streptococcus agalactiae [2] = assay: Antibacterial activity against Streptococcus agalactiae MED 2038 by broth microdilution method; type: functional
Streptococcus pneumoniae [3] = assay: Antibacterial activity against multidrug resistant Streptococcus pneumoniae MED 1090 by broth microdilution method; type: functional
Enterococcus faecium [4] = assay: Antibacterial activity against vancomycin resistant Enterococcus faecium VanB clinical isolate assessed as susceptibility level by broth microdilution method; type: functional
Enterococcus faecium [5] = assay: Antibacterial activity against vancomycin resistant Enterococcus faecium VanA clinical isolate assessed as susceptibility level by broth microdilution method; type: functional
Enterococcus faecalis [6] = assay: Antibacterial activity against vancomycin resistant Enterococcus faecalis VanB clinical isolate assessed as susceptibility level by broth microdilution method; type: functional
Enterococcus faecalis [7] = assay: Antibacterial activity against vancomycin resistant Enterococcus faecalis VanA clinical isolate assessed as susceptibility level by broth microdilution method; type: functional
Streptococcus viridans [8] = assay: Antibacterial activity against Streptococcus viridans clinical isolate assessed as susceptibility level by broth microdilution method; type: functional
[9] = test system: Streptococcus constellatus; assay: Antibacterial activity against Streptococcus constellatus clinical isolate assessed as susceptibility level by broth microdilution method; type: functional
Streptococcus oralis [10] = assay: Antibacterial activity against Streptococcus oralis clinical isolate assessed as susceptibility level by broth microdilution method; type: functional
[11] = test system: Streptococcus intermedius; assay: Antibacterial activity against Streptococcus intermedius clinical isolate assessed as susceptibility level by broth microdilution method; type: functional
Streptococcus mitis [12] = assay: Antibacterial activity against Streptococcus mitis clinical isolate assessed as susceptibility level by broth microdilution method; type: functional
Streptococcus agalactiae [13] = assay: Antibacterial activity against Streptococcus agalactiae group B clinical isolate assessed as susceptibility level by broth microdilution method; type: functional
Streptococcus pyogenes [14] = assay: Antibacterial activity against Streptococcus pyogenes group A clinical isolate assessed as susceptibility level by broth microdilution method; type: functional
Streptococcus pneumoniae [15] = assay: Antibacterial activity against multidrug-resistant Streptococcus pneumoniae clinical isolate assessed as susceptibility level by broth microdilution method; type: functional
Streptococcus pneumoniae [16] = assay: Antibacterial activity against penicillin resistant Streptococcus pneumoniae clinical isolate assessed as susceptibility level by broth microdilution method; type: functional
Streptococcus pneumoniae [17] = assay: Antibacterial activity against penicillin intermediate Streptococcus pneumoniae clinical isolate assessed as susceptibility level by broth microdilution method; type: functional
[18] = test system: Staphylococcus saprophyticus; assay: Antibacterial activity against methicillin resistant coagulase-negative Staphylococcus saprophyticus clinical isolate assessed as susceptibility level by broth microdilution method; type: functional
[19] = (§1) Antibacterial activity against methicillin resistant coagulase-negative Staphylococcus hominis subsp. novobiosepticus clinical isolate assessed as susceptibility level by broth microdilution method; type: functional
[20] = test system: Staphylococcus haemolyticus; assay: Antibacterial activity against methicillin resistant coagulase-negative Staphylococcus haemolyticus clinical isolate assessed as susceptibility level by broth microdilution method; type: functional
Staphylococcus capitis [21] = assay: Antibacterial activity against methicillin resistant coagulase-negative Staphylococcus capitis clinical isolate assessed as susceptibility level by broth microdilution method; type: functional
[22] = test system: Staphylococcus auricularis; assay: Antibacterial activity against methicillin resistant coagulase-negative Staphylococcus auricularis clinical isolate assessed as susceptibility level by broth microdilution method; type: functional
[23] = test system: Staphylococcus epidermidis; assay: Antibacterial activity against methicillin resistant Staphylococcus epidermidis clinical isolate assessed as susceptibility level by broth microdilution method; type: functional
Staphylococcus aureus [24] = assay: Antibacterial activity against methicillin resistant Staphylococcus aureus clinical isolate assessed as susceptibility level by broth microdilution method; type: functional
Enterococcus faecium [25] = assay: Antibacterial activity against vancomycin resistant Enterococcus faecium VanB clinical isolate by broth microdilution method; type: functional
Enterococcus faecium [26] = assay: Antibacterial activity against vancomycin resistant Enterococcus faecium VanA clinical isolate by broth microdilution method; type: functional
Enterococcus faecalis [27] = assay: Antibacterial activity against vancomycin resistant Enterococcus faecalis VanB clinical isolate by broth microdilution method; type: functional
Enterococcus faecalis [28] = assay: Antibacterial activity against vancomycin resistant Enterococcus faecalis VanA clinical isolate by broth microdilution method; type: functional
Streptococcus viridans [29] = assay: Antibacterial activity against Streptococcus viridans clinical isolate by broth microdilution method; type: functional
[30] = test system: Streptococcus constellatus; assay: Antibacterial activity against Streptococcus constellatus clinical isolate by broth microdilution method; type: functional
Streptococcus oralis [31] = assay: Antibacterial activity against Streptococcus oralis clinical isolate by broth microdilution method; type: functional
[32] = test system: Streptococcus intermedius; assay: Antibacterial activity against Streptococcus intermedius clinical isolate by broth microdilution method; type: functional
Streptococcus mitis [33] = assay: Antibacterial activity against Streptococcus mitis clinical isolate by broth microdilution method; type: functional
Streptococcus agalactiae [34] = assay: Antibacterial activity against Streptococcus agalactiae group B clinical isolate by broth microdilution method; type: functional
Streptococcus pyogenes [35] = assay: Antibacterial activity against Streptococcus pyogenes group A clinical isolate by broth microdilution method; type: functional
Streptococcus pneumoniae [36] = assay: Antibacterial activity against multidrug-resistant Streptococcus pneumoniae clinical isolate by broth microdilution method; type: functional
Streptococcus pneumoniae [37] = assay: Antibacterial activity against penicillin resistant Streptococcus pneumoniae clinical isolate by broth microdilution method; type: functional
Streptococcus pneumoniae [38] = assay: Antibacterial activity against penicillin intermediate Streptococcus pneumoniae clinical isolate by broth microdilution method; type: functional
[39] = test system: Staphylococcus saprophyticus; assay: Antibacterial activity against methicillin resistant coagulase-negative Staphylococcus saprophyticus clinical isolate by broth microdilution method; type: functional
[40] = (§2) Antibacterial activity against methicillin resistant coagulase-negative Staphylococcus hominis subsp. novobiosepticus clinical isolate by broth microdilution method; type: functional
[41] = test system: Staphylococcus haemolyticus; assay: Antibacterial activity against methicillin resistant coagulase-negative Staphylococcus haemolyticus clinical isolate by broth microdilution method; type: functional
Staphylococcus capitis [42] = assay: Antibacterial activity against methicillin resistant coagulase-negative Staphylococcus capitis clinical isolate by broth microdilution method; type: functional
[43] = test system: Staphylococcus auricularis; assay: Antibacterial activity against methicillin resistant coagulase-negative Staphylococcus auricularis clinical isolate by broth microdilution method; type: functional
[44] = test system: Staphylococcus epidermidis; assay: Antibacterial activity against methicillin resistant Staphylococcus epidermidis clinical isolate by broth microdilution method; type: functional
Staphylococcus aureus [45] = assay: Antibacterial activity against methicillin resistant Staphylococcus aureus clinical isolate by broth microdilution method; type: functional
Enterococcus faecalis [46] = test system: Enterococcus faecalis
[47] = test system: Staphylococcus hominis subsp. novobiosepticus; assay: as §1; type: functional
[48] = test system: Staphylococcus hominis subsp. novobiosepticus; assay: as §2; type: functional

CN[C@H](CC(C)C)C(=O)N[C@H]1C(=O)N[C@@H](CC(N)=O)C(=O)N[C@H]2C(=O)N[C@H]3C(=O)N[C@H](C(=O)N[C@H](C(=O)O)c4cc(O)cc(O)c4-c4cc3ccc4O)[C@H](O)c3ccc(c(Cl)c3)Oc3cc2cc(c3O[C@@H]2O[C@H](CO)[C@@H](O)[C@H](O)[C@H]2O[C@H]2C[C@](C)(N)[C@H](O)[C@H](C)O2)Oc2ccc(cc2Cl)[C@H]1O [VANCOMYCIN]
MIC (Streptococcus pyogenes [1]): 0.25 µg/mL (≈ 0.173 µM)
MIC (Streptococcus agalactiae [2]): 0.25 µg/mL (≈ 0.173 µM)
MIC (Streptococcus pneumoniae [3]): 0.25 µg/mL (≈ 0.173 µM)
Activity (Enterococcus faecium [4]): 0%
Activity (Enterococcus faecium [5]): 0%
Activity (Enterococcus faecalis [6]): 0%
Percent of isolates susceptible (Enterococcus faecalis [7]): 0%
Activity (Streptococcus viridans [8]): 100%
Activity [9]: 100%
Activity (Streptococcus oralis [10]): 100%
Activity [11]: 100%
Activity (Streptococcus mitis [12]): 100%
Activity (Streptococcus agalactiae [13]): 100%
Activity (Streptococcus pyogenes [14]): 98%
Activity (Streptococcus pneumoniae [15]): 100%
Activity (Streptococcus pneumoniae [16]): 100%
Activity (Streptococcus pneumoniae [17]): 100%
Activity [18]: 100%
Activity [19]: 100%
Activity [20]: 100%
Activity (Staphylococcus capitis [21]): 100%
Activity [22]: 100%
Activity [23]: 100%
Activity (Staphylococcus aureus [24]): 100%
MIC50 (Enterococcus faecium [25]): 512 µg/mL (≈ 353 µM)
MIC90 (Enterococcus faecium [25]): > 512 µg/mL
MIC50 (Enterococcus faecium [26]): 512 µg/mL (≈ 353 µM)
MIC90 (Enterococcus faecium [26]): > 512 µg/mL
MIC (Enterococcus faecalis [27]): 32 µg/mL (≈ 22.1 µM)
MIC50 (Enterococcus faecalis [28]): 512 µg/mL (≈ 353 µM)
MIC90 (Enterococcus faecalis [28]): > 512 µg/mL
MIC (Streptococcus viridans [29]): 0.25 µg/mL (≈ 0.173 µM)
MIC50 (Streptococcus viridans [29]): inactive
MIC90 (Streptococcus viridans [29]): inactive
MIC [30]: 0.25 µg/mL (≈ 0.173 µM)
MIC50 [30]: inactive
MIC90 [30]: inactive
MIC (Streptococcus oralis [31]): 0.25 µg/mL (≈ 0.173 µM)
MIC50 (Streptococcus oralis [31]): inactive
MIC90 (Streptococcus oralis [31]): inactive
MIC [32]: 0.25 µg/mL (≈ 0.173 µM)
MIC50 [32]: inactive
MIC90 [32]: inactive
MIC (Streptococcus mitis [33]): 0.25 µg/mL (≈ 0.173 µM)
MIC50 (Streptococcus mitis [33]): inactive
MIC90 (Streptococcus mitis [33]): inactive
MIC (Streptococcus agalactiae [34]): 0.25 µg/mL (≈ 0.173 µM)
MIC50 (Streptococcus agalactiae [34]): 0.25 µg/mL (≈ 0.173 µM)
MIC90 (Streptococcus agalactiae [34]): 0.5 µg/mL (≈ 0.345 µM)
MIC50 (Streptococcus pyogenes [35]): 0.25 µg/mL (≈ 0.173 µM)
MIC90 (Streptococcus pyogenes [35]): 0.5 µg/mL (≈ 0.345 µM)
MIC50 (Streptococcus pneumoniae [36]): 0.25 µg/mL (≈ 0.173 µM)
MIC90 (Streptococcus pneumoniae [36]): 0.25 µg/mL (≈ 0.173 µM)
MIC50 (Streptococcus pneumoniae [37]): 0.25 µg/mL (≈ 0.173 µM)
MIC90 (Streptococcus pneumoniae [37]): 0.25 µg/mL (≈ 0.173 µM)
MIC50 (Streptococcus pneumoniae [38]): 0.5 µg/mL (≈ 0.345 µM)
MIC90 (Streptococcus pneumoniae [38]): 0.5 µg/mL (≈ 0.345 µM)
MIC50 [39]: 2 µg/mL (≈ 1.38 µM)
MIC90 [39]: 2 µg/mL (≈ 1.38 µM)
MIC50 [40]: 2 µg/mL (≈ 1.38 µM)
MIC90 [40]: 2 µg/mL (≈ 1.38 µM)
MIC50 [41]: 2 µg/mL (≈ 1.38 µM)
MIC90 [41]: 2 µg/mL (≈ 1.38 µM)
MIC50 (Staphylococcus capitis [42]): 2 µg/mL (≈ 1.38 µM)
MIC90 (Staphylococcus capitis [42]): 2 µg/mL (≈ 1.38 µM)
MIC50 [43]: 2 µg/mL (≈ 1.38 µM)
MIC90 [43]: 2 µg/mL (≈ 1.38 µM)
MIC [44]: 0.5 µg/mL (≈ 0.345 µM)
Activity (Staphylococcus aureus [45]): 100%
MIC50 (Staphylococcus aureus [45]; Staphylococcus aureus): 0.5 µg/mL (≈ 0.345 µM)
MIC90 (Staphylococcus aureus [45]; Staphylococcus aureus): 1 µg/mL (≈ 0.69 µM)
MIC50 (Enterococcus faecalis [46]): inactive
MIC90 (Enterococcus faecalis [46]): inactive

GENTAMICIN
Activity [18]: 29%
Activity [47]: 29%
Activity [20]: 29%
Activity (Staphylococcus capitis [21]): 29%
Activity [22]: 29%
Activity [23]: 35%
Activity (Staphylococcus aureus [24]): 97%
MIC50 [39]: 16 µg/mL
MIC90 [39]: > 16 µg/mL
MIC50 [48]: 16 µg/mL
MIC90 [48]: > 16 µg/mL
MIC50 [41]: 16 µg/mL
MIC90 [41]: > 16 µg/mL
MIC50 (Staphylococcus capitis [42]): 16 µg/mL
MIC90 (Staphylococcus capitis [42]): > 16 µg/mL
MIC50 [43]: 16 µg/mL
MIC90 [43]: > 16 µg/mL
MIC50 [44]: 16 µg/mL
MIC90 [44]: > 16 µg/mL
Activity (Staphylococcus aureus [45]): 97%
MIC50 (Staphylococcus aureus [45]): 0.5 µg/mL
MIC90 (Staphylococcus aureus [45]): 2 µg/mL

Source: ChEMBL document CHEMBL1275440, “In vitro activity of telavancin against resistant gram-positive bacteria” (2008)
